Reference: patent publication US10718006B2, “Methods for detecting beta-lactamase-producing bacteria” (priority 2015, dated 2020)

Columns and labels:
Type in all cases: cell-based
[1] = test system: P. aeruginosa strains; experiment: Electrochemical assay with substrate HMRZ-86, liquid cultures; details: liquid culture, 30 min with HMRZ-86
Method: Each cryopreserved strain is cultured in 10 mL of LB medium at 37° C. until the stationary phase is obtained.
A volume of 50 μL of culture liquid is incubated in the presence of 50 μL of a solution of HMRZ-86 at 0.5 mM in PBS at 37° C. with stirring for 30 min. 40 μL of the reaction mixture is taken and transferred onto the surface of a screen-printed carbon sensor (Dropsens, DRP-110) connected beforehand to a STAT 8000P portable potentiostat (Dropsens) with power supply from the computer's USB port and controlled by the DropView 8400 software. Linear voltammetry measurements are carried out by linear potential scanning from −0.1 V to 1.2 V at a rate of 50 mV·s^−1. The peak current appearing in the potential range +0.2 to +0.55 V vs. Ag/AgCl, associated with hydrolysis of the beta-lactam ring of HMRZ-86, is selected as the analytical response. If the intensity of the peak (i) has a value above 500 nA, the sample contains a strain capable of degrading the C3Gs.
(§1) The electrochemical method of the invention was applied to analysis of a panel of 40 strains producing various β-lactamases and was compared with the R-Lacta™ Test (Biorad), the principle of which is based on qualitative colorimetric detection of the C3G-resistant strains. The results presented in Table 7 were obtained after 30 min of incubation of the bacteria with the substrate HMRZ-86 for both methods. Based on the interpretation of the results proposed by the supplier, the R-Lacta™ Test allows identification of the C3G-resistant strains with a level of agreement of 68%, whereas a level of agreement of 95% was obtained with the electrochemical method of the invention. In contrast to colorimetry, amperometry offers the advantage of measuring a numerical value of current which, on the one hand, avoids any subjective interpretation of the result (intermediate colour), and on the other hand allows traceability of the result.
(§2) Table 7: Comparison of the results obtained with the electrochemical method of the invention for liquid cultures with those obtained with the R-Lacta™ Test implemented according to the supplier's recommendations with isolated colonies. In both cases, the readings were taken after incubation with the substrate HMRZ-86 for 30 min.

[2] = test system: C. freundii strain; experiment: β-Lacta Test (colorimetric, HMRZ-86), isolated colonies; set-up: key: Yellow or orange colour: negative result (absence of C3G-resistant strains); Orange: Yellow or orange colour: negative result (absence of C3G-resistant strains); Red colour: positive result (presence of C3G-resistant strains); details: C. freundii 11745, Inducible cephalosporinase, 30 min with HMRZ-86
Method: as §1, §2

[3] = test system: E. aerogenes strains; experiment: as above; set-up: key: Yellow or orange colour: negative result (absence of C3G-resistant strains); Orange: Yellow or orange colour: negative result (absence of C3G-resistant strains); Red colour: positive result (presence of C3G-resistant strains)
Method: as §1, §2

[4] = test system: E. cloacae strains; experiment: as above; set-up: key: Yellow or orange colour: negative result (absence of C3G-resistant strains); Orange: Yellow or orange colour: negative result (absence of C3G-resistant strains); Red colour: positive result (presence of C3G-resistant strains); details: 30 min with HMRZ-86
Method: as §1, §2

[5] = test system: E. coli strains producing various β-lactamases; experiment: as above; set-up: key: Yellow or orange colour: negative result (absence of C3G-resistant strains); Orange: Yellow or orange colour: negative result (absence of C3G-resistant strains); Red colour: positive result (presence of C3G-resistant strains)
Method: as §1, §2

[6] = test system: K. oxytoca strain; experiment: as above; set-up: key: Yellow or orange colour: negative result (absence of C3G-resistant strains); Orange: Yellow or orange colour: negative result (absence of C3G-resistant strains); Red colour: positive result (presence of C3G-resistant strains); details: K. oxytoca 11779, Low-level penicillinase, 30 min with HMRZ-86
Method: as §1, §2

[7] = test system: K. pneumoniae strains; experiment: as above; set-up: key: Yellow or orange colour: negative result (absence of C3G-resistant strains); Orange: Yellow or orange colour: negative result (absence of C3G-resistant strains); Red colour: positive result (presence of C3G-resistant strains)
Method: as §1, §2

[8] = test system: P. aeruginosa strains; experiment: as above; set-up: key: Yellow or orange colour: negative result (absence of C3G-resistant strains); Orange: Yellow or orange colour: negative result (absence of C3G-resistant strains); Red colour: positive result (presence of C3G-resistant strains); details: 30 min with HMRZ-86
Method: as §1, §2

[9] = test system: P. mirabilis strains; experiment: as above; set-up: key: Yellow or orange colour: negative result (absence of C3G-resistant strains); Orange: Yellow or orange colour: negative result (absence of C3G-resistant strains); Red colour: positive result (presence of C3G-resistant strains); details: 30 min with HMRZ-86
Method: as §1, §2

[10] = test system: S. marcescens strain; experiment: as above; set-up: key: Yellow or orange colour: negative result (absence of C3G-resistant strains); Orange: Yellow or orange colour: negative result (absence of C3G-resistant strains); Red colour: positive result (presence of C3G-resistant strains); details: S. marcescens 11787, Hyperproduced cephalosporinase, 30 min with HMRZ-86
Method: as §1, §2

[11] = P. aeruginosa 11774, Hyperproduced cephalosporinase
[12] = P. aeruginosa 11778, Hyperproduced cephalosporinase
[13] = P. aeruginosa 11782, Hyperproduced cephalosporinase

CC(C)(ON=C(C(=O)N[C@@H]1C(=O)N2C(C(=O)O)=C(C=Cc3ccc([N+](=O)[O-])cc3[N+](=O)[O-])CS[C@H]12)c1csc(N)n1)C(=O)O.O=C(O)C(F)(F)F [HMRZ-86, (6R,7R)-trifluoroacetate 7-[[2-(2-amino-4-thiazolyl)-2-[(1-carboxy-1-methylethoxy)imino]acetyl]amino]-1-aza-3-[2-(2,4-dinitrophenyl)ethenyl]-8-oxo-5-thiabicyclo[4.2.0]oct-2-ene-2-carboxylic acid]
Electrochemical assay Intensity [1, 11]: 2160 nA | Electrochemical assay Intensity [1, 12]: 2278 nA | Electrochemical assay Intensity [1, 13]: 1778 nA | β-Lacta ™ Test Colour [2]: Yellow | β-Lacta ™ Test Colour ([3]; E. aerogenes 11772, Inducible cephalosporinase, 30 min with HMRZ-86): Yellow | β-Lacta ™ Test Colour ([3]; E. aerogenes 11775, Hyperproduced cephalosporinase, 30 min with HMRZ-86): Yellow | β-Lacta ™ Test Colour ([3]; E. aerogenes 11796, ESBL TEM 24, 30 min with HMRZ-86): Orange | β-Lacta ™ Test Colour ([4]; E. cloacae 11784, Hyperproduced cephalosporinase): Orange | β-Lacta ™ Test Colour ([4]; E. cloacae 11790, Hyperproduced cephalosporinase): Orange | β-Lacta ™ Test Colour ([4]; E. cloacae 11794, Hyperproduced cephalosporinase): Orange | β-Lacta ™ Test Colour ([5]; E. coli 11746, Hyperproduced penicillinase, 30 min with HMRZ-86): Yellow | β-Lacta ™ Test Colour ([5]; E. coli 11748, Inducible cephalosporinase, 30 min with HMRZ-86): Yellow | β-Lacta ™ Test Colour ([5]; E. coli 11755, Carbapenemase OXA-48 - CTX-M, 30 min with HMRZ-86): Red | β-Lacta ™ Test Colour ([5]; E. coli 11757, Carbapenemase OXA-48, 30 min with HMRZ-86): Orange | β-Lacta ™ Test Colour ([5]; E. coli 11765, Hyperproduced penicillinase, 30 min with HMRZ-86): Yellow | β-Lacta ™ Test Colour ([5]; E. coli 11766, Inducible cephalosporinase, 30 min with HMRZ-86): Yellow | β-Lacta ™ Test Colour ([5]; E. coli 11771, Hyperproduced penicillinase, 30 min with HMRZ-86): Yellow | β-Lacta ™ Test Colour ([5]; E. coli 11776, Inducible cephalosporinase, 30 min with HMRZ-86): Yellow | β-Lacta ™ Test Colour ([5]; E. coli 11780, Hyperproduced penicillinase, 30 min with HMRZ-86): Yellow | β-Lacta ™ Test Colour ([5]; E. coli 11781, Low-level penicillinase, 30 min with HMRZ-86): Yellow | β-Lacta ™ Test Colour ([5]; E. coli 11791, Hyperproduced cephalosporinase, 30 min with HMRZ-86): Yellow | β-Lacta ™ Test Colour ([5]; E. coli 11810, ESBL CTX-M-1, 30 min with HMRZ-86): Red | β-Lacta ™ Test Colour ([5]; E. coli 11817, ESBL CTX-M-2, 30 min with HMRZ-86): Red | β-Lacta ™ Test Colour ([5]; E. coli 11818, ESBL CTX-M-1, 30 min with HMRZ-86): Red | β-Lacta ™ Test Colour ([5]; E. coli 11820, ESBL SHV-12, 30 min with HMRZ-86): Red | β-Lacta ™ Test Colour ([5]; E. coli 11828, ESBL CTX-M-27, 30 min with HMRZ-86): Red | β-Lacta ™ Test Colour ([5]; E. coli 11833, ESBL CTX-M-9, 30 min with HMRZ-86): Red | β-Lacta ™ Test Colour ([5]; E. coli 11834, ESBL TEM-12, 30 min with HMRZ-86): Yellow | β-Lacta ™ Test Colour ([5]; E. coli 11863, ESBL CTX-M-14, 30 min with HMRZ-86): Red | β-Lacta ™ Test Colour ([5]; E. coli K12, Beta-lactamase negative, 30 min with HMRZ-86): Yellow | β-Lacta ™ Test Colour [6]: Yellow | β-Lacta ™ Test Colour ([7]; K. pneumoniae 11754, Carbapenemase OXA-48 - CTX-M, 30 min with HMRZ-86): Red | β-Lacta ™ Test Colour ([7]; K. pneumoniae 11762, Carbapenemase OXA-48, 30 min with HMRZ-86): Orange | β-Lacta ™ Test Colour ([7]; K. pneumoniae 11770, Low-level penicillinase, 30 min with HMRZ-86): Yellow | β-Lacta ™ Test Colour ([7]; K. pneumoniae 11812, ESBL CTX-M-15, 30 min with HMRZ-86): Red | β-Lacta ™ Test Colour ([7]; K. pneumoniae 11839, Carbapenemase KPC-2, 30 min with HMRZ-86): Red | β-Lacta ™ Test Colour ([7]; K. pneumoniae 11842, Carbapenemase NDM-1, 30 min with HMRZ-86): Red | β-Lacta ™ Test Colour [8, 11]: Orange | β-Lacta ™ Test Colour [8, 12]: Yellow | β-Lacta ™ Test Colour [8, 13]: Yellow | β-Lacta ™ Test Colour ([9]; P. mirabilis 11747, Beta-lactamase negative): Yellow | β-Lacta ™ Test Colour ([9]; P. mirabilis 11768, Low-level penicillinase): Yellow | β-Lacta ™ Test Colour [10]: Orange
